Laboratory results reported in the supplement of paper PMC9663587.

Experiments:
[1] = compound: CNCc1ccc(-c2[nH]c3cc(F)cc4c3c2CCNC4=O)cc1 [Rucaparib]
[2] = compound: CC(C)Nc1cc(-c2c[nH]c(C(=O)N[C@H](CO)c3cccc(Cl)c3)c2)c(Cl)cn1 [BVD523]
[3] = compound: COc1cc2nccc(Oc3ccc(NC(=O)C4(C(=O)Nc5ccc(F)cc5)CC4)cc3)c2cc1OC [Cabozantinib]
[4] = compound: C1=CC(=CC(=C1)N2C(=O)C=CC3=CN=C4C=CC(=CC4=C32)C5=CN=C(C=C5)N)C(F)(F)F [Torin2]
[5] = compound: C=CCn1c(=O)c2cnc(Nc3ccc(N4CCN(C)CC4)cc3)nc2n1-c1cccc(C(C)(C)O)n1 [AZD1775]
[6] = compound: COc1cc2c(Oc3ccc4[nH]c(C)cc4c3F)ncnc2cc1OCCCN1CCCC1 [Cediranib/AZD2171]
[7] = compound: CC(=O)c1c(C)c2cnc(Nc3ccc(N4CCN(CCOCCOCCOCCNC(=O)COc5cccc6c5C(=O)N(C5CCC(=O)NC5=O)C6=O)CC4)cn3)nc2n(C2CCCC2)c1=O [BSJ-03-123]
[8] = compound: CS(=O)(=O)N1CCN(Cc2cc3nc(-c4cccc5[nH]ncc45)nc(N4CCOCC4)c3s2)CC1 [Pictilisib/GDC0941]
[9] = compound: Cc1nn(C)c(COc2ccc(N3CCN(S(=O)(=O)N(C)C)CC3)cc2)c1-c1cccc2c(CCCOc3cccc4ccccc34)c(C(=O)O)n(CCN3CCOCC3)c12
[10] = compound: CC(=O)O[C@H]1C(=O)[C@@]2(C)[C@H]([C@H](OC(=O)c3ccccc3)[C@]3(O)C[C@H](OC(=O)[C@H](O)[C@@H](NC(=O)c4ccccc4)c4ccccc4)C(C)=C1C3(C)C)[C@]1(OC(C)=O)CO[C@@H]1C[C@@H]2O [Paclitaxel]
[11] = compound: CCOc1cc2ncc(C#N)c(Nc3ccc(OCc4ccccn4)c(Cl)c3)c2cc1NC(=O)/C=C/CN(C)C [Neratinib/HKI272]
[12] = compound: O=C(c1cc(Cc2n[nH]c(=O)c3ccccc23)ccc1F)N1CCN(C(=O)C2CC2)CC1 [Olaparib/AZD2281]
[13] = compound: Cc1nc(Nc2ncc(C(=O)Nc3c(C)cccc3Cl)s2)cc(N2CCN(CCO)CC2)n1 [Dasatinib]
[14] = compound: CC[C@@H]1C(=O)N(C)c2cnc(Nc3ccc(C(=O)N[C@H]4CC[C@H](N5CCN(CC6CC6)CC5)CC4)cc3OC)nc2N1C(C)C [Volasertib/BI6727]
[15] = compound: Nc1cc(C(F)(F)F)c(-c2cc(N3CCOCC3)nc(N3CCOCC3)n2)cn1 [Buparlisib/NVP-BKM120]
[16] = compound: CCNC(=O)c1noc(-c2cc(C(C)C)c(O)cc2O)c1-c1ccc(CN2CCOCC2)cc1 [Luminespib/NVP-AUY922]
[17] = compound: CN(C)C/C=C/C(=O)Nc1ccc(C(=O)Nc2cccc(Nc3ncc(Cl)c(-c4c[nH]c5ccccc45)n3)c2)cc1 [THZ1]
[18] = compound: NC1(C(=O)N[C@@H](CCO)c2ccc(Cl)cc2)CCN(c2nc[nH]c3nccc2-3)CC1 [AZD5363]
[19] = compound: Cc1cc(Nc2ncc(Cl)c(Nc3ccccc3S(=O)(=O)C(C)C)n2)c(OC(C)C)cc1C1CCNCC1 [Ceritinib/LDK378]
[20] = compound: CN(C)C/C=C/C(=O)NC1=CC=C(C=C1)C(=O)NC2=CC=CC(=C2)NC3=NC=NC(=C3)C4=CNC5=CC=CC=C54 [THZ-P1-2]
[21] = compound: CC1=CN2C(=O)C=C(N=C2C(=C1)C(C)NC3=CC=CC=C3)N4CCOCC4 [TGX221]
[22] = compound: CC(C)n1nc(-c2ccc3oc(N)nc3c2)c2c(N)ncnc21 [INK128/MLN0128]
[23] = compound: CCCCOc1c(C(=O)c2c(F)cc(C)cc2F)c[nH]c2nncc1-2
[24] = compound: CNc1nc(-c2ccc3c(N)n[nH]c3c2)cc(N2C[C@@H](C(=O)NC3CCCCC3)CC[C@H]2C)n1
[25] = compound: C1=CC2=C(C=CC(=C2)C=C3C(=O)NC(=NCC4=CC=CS4)S3)N=C1 [R0-3306]
[26] = compound: CN(C)C/C=C/C(=O)Nc1ccc(C(=O)N2CCC[C@@H](Nc3ncc(Cl)c(-c4c[nH]c5ccccc45)n3)C2)cc1 [THZ531]
[27] = compound: Cc1nc(NC(=O)N2CCC[C@H]2C(N)=O)sc1-c1ccnc(C(C)(C)C(F)(F)F)c1 [Alpelisib/BYL719]
[28] = compound: CN(C)C(=O)c1cc2cnc(Nc3ccc(N4CCNCC4)cn3)nc2n1C1CCCC1 [LEE011/Ribociclib]
[29] = compound: COc1cccc2c1C(=O)c1c(O)c3c(c(O)c1C2=O)C[C@@](O)(C(=O)CO)C[C@@H]3O[C@H]1C[C@H](N)[C@H](O)[C@H](C)O1 [Doxorubicin]
[30] = compound: CC1(CCN(CC1)C2=CN=C(C(=N2)N)C3=C(C(=CC=C3)Cl)Cl)N [SHP099]
[31] = compound: CN1CCN(C(=O)c2ccc3cc(CCNc4ncnc5ccc(C#N)cc45)ccc3c2)CC1 [senexin b]
[32] = compound: CCc1cnn2c(NCc3ccc[n+]([O-])c3)cc(N3CCCC[C@H]3CCO)nc12
[33] = compound: CC(=O)c1c(C)c2cnc(Nc3ccc(N4CCNCC4)cn3)nc2n(C2CCCC2)c1=O
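Note: breast cancer and non-malignant breast epithelial cell lines, Deep Dye Drop or Dye Drop imaging, nine half-log doses, GR normalized to time-zero plates and DMSO-only controls.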

| Cell Line | GR50, 72 h [1] [µM] | GR50, 72 h [2] [µM] | GR50, 72 h [3] [µM] | GR50, 72 h [4] [µM] | GR50, 72 h [5] [µM] | GR50, 72 h [6] [µM] | GR50, 72 h [7] [µM] | GR50, 72 h [8] [µM] | GR50, 72 h [9] [µM] | GR50, 72 h [10] [µM] | GR50, 72 h [11] [µM] | GR50, 72 h [12] [µM] | GR50, 72 h [13] [µM] | GR50, 72 h [14] [µM] | GR50, 72 h [15] [µM] | GR50, 72 h [16] [µM] | GR50, 72 h [17] [µM] | GR50, 72 h [18] [µM] | GR50, 72 h [19] [µM] | GR50, 72 h [20] [µM] | GR50, 72 h [21] [µM] | GR50, 72 h [22] [µM] | GR50, 72 h [23] [µM] | GR50, 72 h [24] [µM] | GR50, 72 h [25] [µM] | GR50, 72 h [26] [µM] | GR50, 72 h [27] [µM] | GR50, 72 h [28] [µM] | GR50, 72 h [29] [µM] | GR50, 72 h [30] [µM] | GR50, 72 h [31] [µM] | GR50, 72 h [32] [µM] | GR50, 72 h [33] [µM] |
| --- | --- | --- | --- | --- | --- | --- | --- | --- | --- | --- | --- | --- | --- | --- | --- | --- | --- | --- | --- | --- | --- | --- | --- | --- | --- | --- | --- | --- | --- | --- | --- | --- | --- |
| SUM149 | > 10 | 1.96 | 5.87 | 0.142 | 0.0722 | 5.18 | 1.33 | 6.06 | 5.97 | 0.00159 | 0.0697 | 3.87 | 0.0931 | 0.012 | 1.45 | 0.00516 | 0.0493 | 6.67 | 1.7 | 6.14 | > 10 | 0.163 | 0.0163 | > 10 | 4.86 | 0.345 | > 10 | > 10 | 0.00797 | > 10 | > 10 | 0.0134 | – |
| ZR751 | > 10 | > 10 | > 10 | 0.0172 | 6.23 | > 10 | 3.04 | 0.672 | > 10 | 0.0088 | > 3.16 | > 10 | 0.0343 | 0.115 | 1.15 | 0.0228 | 0.428 | > 10 | 3.79 | 8.94 | 0.371 | 0.00782 | > 10 | 5.91 | > 10 | 0.427 | > 10 | 5.42 | 0.0247 | > 10 | > 10 | 0.035 | > 3.16 |
| PDX1258 | > 10 | 4.62 | 8.59 | 0.0356 | 0.0187 | 4.71 | 4.91 | 1.7 | > 10 | 0.00215 | 1.1 | > 10 | 0.0216 | 0.00743 | 1.36 | 0.0101 | 0.0148 | 3.52 | 2.08 | 0.492 | > 10 | 0.044 | < 0.001 | > 10 | 5.5 | 0.0492 | > 10 | > 10 | 0.00914 | > 10 | > 10 | 0.0116 | > 3.16 |
| SUM44PE | > 10 | 2.7 | 5.47 | 0.00502 | 0.237 | 9.59 | 0.818 | 0.435 | 3.31 | 0.00153 | 0.0248 | > 10 | – | 0.00884 | 0.412 | 0.00453 | 0.00443 | 0.0475 | 2.56 | 0.196 | > 10 | 0.0102 | < 0.001 | 4.21 | 1.91 | 0.0499 | 0.65 | 2.54 | 0.0211 | > 10 | 1.77 | 0.00834 | 0.212 |
| HCC1806 | > 10 | > 10 | > 10 | 0.0358 | 0.0128 | 4.93 | 2.56 | 5.87 | > 10 | 0.00143 | 0.78 | > 10 | 0.0537 | 0.0028 | 1.05 | 0.0109 | 0.0688 | > 10 | 2.14 | 4.69 | > 10 | 0.0524 | 0.278 | > 10 | 5.39 | 0.407 | > 10 | > 10 | 0.0159 | > 10 | > 10 | 0.0134 | > 3.16 |
| MCF12A | > 10 | 5.73 | > 10 | 0.0424 | 1.92 | > 10 | 5.35 | 6.67 | > 10 | 0.00577 | 0.422 | > 10 | 0.209 | 0.0519 | 2.84 | 0.0103 | 0.15 | > 10 | 7.62 | 8.04 | > 10 | 0.022 | 7.57 | > 10 | 9.7 | 0.632 | > 10 | > 10 | 0.0155 | > 10 | > 10 | 0.0371 | > 3.16 |
| SKBR3 | > 10 | 6.46 | 9.69 | 0.00361 | 0.206 | 6.2 | 1.02 | 0.114 | > 10 | 0.00191 | 0.00165 | > 10 | 3.65 | 0.00545 | 0.14 | 0.00228 | 0.014 | 2.76 | 0.985 | 4.25 | > 10 | 0.00265 | 0.0869 | 2.11 | 4.77 | 0.0273 | 0.485 | 6.14 | 0.00673 | > 10 | > 10 | 0.00682 | 0.176 |
